Test results: ChEMBL document CHEMBL1201862, “PubChem BioAssay data set” (2004)
“And” between values parts separate entries of the source, which are not always exact repeats. Equal values may be shown once. The source made the active and inactive calls.

Legend:
[1] = target: T1, Coagulation factor XII (Homo sapiens, UniProt P00748); assay type: functional;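 further: activated factor XIIa alpha cleaving a fluorogenic AMC peptide substrate; inhibitor potency from loss of enzyme activity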
T1 sequence (P00748 whole entry): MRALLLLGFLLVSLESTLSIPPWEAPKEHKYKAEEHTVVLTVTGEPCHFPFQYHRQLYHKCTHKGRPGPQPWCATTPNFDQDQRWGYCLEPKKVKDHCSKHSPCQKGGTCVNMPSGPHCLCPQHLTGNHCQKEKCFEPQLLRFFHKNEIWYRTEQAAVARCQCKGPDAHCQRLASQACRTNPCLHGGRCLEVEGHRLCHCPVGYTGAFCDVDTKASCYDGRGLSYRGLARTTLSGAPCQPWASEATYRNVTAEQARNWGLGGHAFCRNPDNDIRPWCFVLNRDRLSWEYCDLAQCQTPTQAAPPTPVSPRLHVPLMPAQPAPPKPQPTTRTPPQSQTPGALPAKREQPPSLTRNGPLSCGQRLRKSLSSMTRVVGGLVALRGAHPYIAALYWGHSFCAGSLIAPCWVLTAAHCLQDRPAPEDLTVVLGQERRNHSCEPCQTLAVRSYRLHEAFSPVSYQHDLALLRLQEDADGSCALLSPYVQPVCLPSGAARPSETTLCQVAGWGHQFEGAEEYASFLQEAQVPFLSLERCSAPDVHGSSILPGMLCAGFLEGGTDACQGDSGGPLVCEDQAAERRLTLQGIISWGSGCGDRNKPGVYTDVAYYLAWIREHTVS

[2] = Vero E6 cell cytotoxicity, dose response, cytotoxicity control for non-replicating M. tuberculosis project, secondary assay (AID 492998); assay type: functional, VeroE6; details: Vero C1008
[3] = cells; assay type: functional
[4] = system: Streptococcus sp. 'group A'; experiment: growth inhibition of control SK(-) GAS strain, dose response, counter-screen for streptokinase expression inhibitor project, luminescence, kanamycin, BacTiterGlo, confirmation (AID 1900); assay type: functional, organism-based
[5] = THP-1 cell cytotoxicity, dose response, cytotoxicity control for non-replicating M. tuberculosis project (AID 489025); assay type: functional
[6] = system: Streptococcus; experiment: Group A Streptococcus viability loss, dose response, counter-screen for streptokinase expression inhibitor project, luminescence, BacTiterGlo (AID 1915); assay type: functional, organism-based;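 further: potency for reduction of bacterial viability or growth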
[7] = target: T2, Streptokinase A (Streptococcus pyogenes serotype M1, UniProt P10520); experiment: S. pyogenes streptokinase expression inhibitors, potency, dose response, plasminogen activation absorbance, OD405 (AID 1914); assay type: functional, Streptococcus pyogenes M1 GAS;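 further: secreted streptokinase activity via plasminogen activation per viability signal from cell pellet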
T2 sequence (P10520 whole entry): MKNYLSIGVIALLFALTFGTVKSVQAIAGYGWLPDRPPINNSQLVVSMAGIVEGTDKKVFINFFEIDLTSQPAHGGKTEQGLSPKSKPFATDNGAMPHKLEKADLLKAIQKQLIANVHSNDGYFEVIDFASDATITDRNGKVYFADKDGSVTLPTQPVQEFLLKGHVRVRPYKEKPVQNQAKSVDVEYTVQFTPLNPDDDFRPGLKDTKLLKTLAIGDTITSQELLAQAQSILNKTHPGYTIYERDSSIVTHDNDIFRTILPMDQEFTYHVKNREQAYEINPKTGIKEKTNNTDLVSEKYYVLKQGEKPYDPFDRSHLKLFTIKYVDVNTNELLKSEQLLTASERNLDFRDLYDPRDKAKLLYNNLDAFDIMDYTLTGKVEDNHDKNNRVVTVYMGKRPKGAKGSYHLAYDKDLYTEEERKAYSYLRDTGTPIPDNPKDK

[8] = HepG2 cell cytotoxicity, dose response, cytotoxicity control for non-replicating M. tuberculosis project (AID 489018); assay type: functional; details: Mycobacterium tuberculosis
[9] = target: DNA dC->dU-editing enzyme APOBEC-3A (Homo sapiens, UniProt P31941); experiment: APOBEC3A DNA deaminase inhibitors, dose response, biochemical (AID 504722); assay type: functional
[10] = target: DNA dC->dU-editing enzyme APOBEC-3G (Homo sapiens, UniProt Q9HC16); experiment: Dose Response confirmation of small molecule APOBEC3G DNA Deaminase Inhibitors via a fluorescence-based single-stranded DNA deaminase assay. [Related pubchem assays (depositor defined):AID493012, AID493028]; assay type: functional
[11] = target: T3, Short transient receptor potential channel 4 (Mus musculus, UniProt Q9QUQ5); experiment: mouse TRPC4 channel inhibitors, dose response, cell-based, HEK293 TRPC4/mu-opioid, Fluo-4 calcium (AID 434942); assay type: functional;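 further: potency of inhibitors blocking the TRPC4 calcium response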
T3 sequence (Q9QUQ5 whole entry): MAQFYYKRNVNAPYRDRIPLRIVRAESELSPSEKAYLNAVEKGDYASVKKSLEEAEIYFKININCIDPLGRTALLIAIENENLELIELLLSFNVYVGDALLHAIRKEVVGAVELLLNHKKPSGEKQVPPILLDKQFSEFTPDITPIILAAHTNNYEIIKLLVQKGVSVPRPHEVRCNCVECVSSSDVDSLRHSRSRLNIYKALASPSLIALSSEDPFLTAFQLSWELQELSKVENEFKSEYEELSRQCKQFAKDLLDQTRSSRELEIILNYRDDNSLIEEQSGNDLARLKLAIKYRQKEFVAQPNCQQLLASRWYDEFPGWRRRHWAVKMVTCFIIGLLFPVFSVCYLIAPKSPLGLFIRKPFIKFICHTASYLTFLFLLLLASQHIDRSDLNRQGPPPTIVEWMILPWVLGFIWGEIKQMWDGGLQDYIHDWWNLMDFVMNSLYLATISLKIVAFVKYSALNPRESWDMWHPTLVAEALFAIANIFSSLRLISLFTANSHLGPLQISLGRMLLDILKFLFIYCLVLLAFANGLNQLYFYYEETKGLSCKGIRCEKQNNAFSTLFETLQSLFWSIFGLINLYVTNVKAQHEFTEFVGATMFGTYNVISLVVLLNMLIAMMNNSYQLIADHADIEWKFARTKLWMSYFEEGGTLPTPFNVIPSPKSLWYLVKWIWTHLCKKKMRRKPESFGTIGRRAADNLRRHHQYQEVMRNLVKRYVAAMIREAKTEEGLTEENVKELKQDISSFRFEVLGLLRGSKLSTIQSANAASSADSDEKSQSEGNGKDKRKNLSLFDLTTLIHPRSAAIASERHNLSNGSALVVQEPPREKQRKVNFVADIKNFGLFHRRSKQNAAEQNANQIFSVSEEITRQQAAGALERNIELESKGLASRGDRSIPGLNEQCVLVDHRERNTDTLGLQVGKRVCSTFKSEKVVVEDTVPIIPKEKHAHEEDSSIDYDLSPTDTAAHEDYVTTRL

[12] = target: G-protein coupled receptor 55 (Homo sapiens, UniProt Q9Y2T6); experiment: GPR55 antagonists blocking LPI-driven arrestin recruitment, primary screen, imaging, U2OS, beta-arrestin-GFP, LPI agonist (AID 2013); assay type: functional;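 further: antagonist potency measured as reduced agonist-driven arrestin aggregation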
[13] = target: T4, Mannose-6-phosphate isomerase (Homo sapiens, UniProt P34949); experiment: inhibitors of human PMI, primary screen, biochemical, fluorescence intensity, coupled assay (AID 1209)
T4 sequence (P34949 whole entry): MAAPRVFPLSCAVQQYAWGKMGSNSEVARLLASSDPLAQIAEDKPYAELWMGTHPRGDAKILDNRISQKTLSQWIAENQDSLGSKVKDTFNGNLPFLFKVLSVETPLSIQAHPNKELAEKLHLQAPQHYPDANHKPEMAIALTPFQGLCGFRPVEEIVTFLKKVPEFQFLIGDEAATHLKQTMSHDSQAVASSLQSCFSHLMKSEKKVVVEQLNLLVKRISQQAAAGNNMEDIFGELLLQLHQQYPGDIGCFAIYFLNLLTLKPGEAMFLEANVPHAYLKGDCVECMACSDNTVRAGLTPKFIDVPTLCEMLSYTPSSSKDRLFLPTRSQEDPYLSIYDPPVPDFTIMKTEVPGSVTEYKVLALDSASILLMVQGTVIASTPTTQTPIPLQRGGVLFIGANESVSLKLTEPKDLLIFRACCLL

[14] = target: Ras and Rab interactor 1/Tyrosine-protein kinase ABL1 (Homo sapiens, UniProt P00519+Q13671); assay type: functional;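 further: biochemical TR-FRET dose-response test measuring inhibition of binding between Rin1 and Abl proteins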
[15] = target: T5, RNA-binding protein pos-1 (Caenorhabditis elegans, UniProt G5EF15); experiment: inhibitors of POS-1/mex-3 RNA binding, dose response, biochemical, fluorescence polarization (AID 1964);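 further: purified POS-1 fused to maltose binding protein made in E. coli; potency of compounds blocking POS-1 binding to fluorescent RNA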
T5 sequence (G5EF15 whole entry): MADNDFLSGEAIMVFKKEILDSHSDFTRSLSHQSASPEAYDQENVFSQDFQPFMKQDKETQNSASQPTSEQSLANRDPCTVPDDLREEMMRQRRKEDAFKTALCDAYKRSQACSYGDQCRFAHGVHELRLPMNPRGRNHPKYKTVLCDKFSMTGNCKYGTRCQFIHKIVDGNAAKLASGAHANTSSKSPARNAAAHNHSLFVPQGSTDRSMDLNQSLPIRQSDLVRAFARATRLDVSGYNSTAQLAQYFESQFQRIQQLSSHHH

[16] = target: T6, Zinc finger protein mex-5 (Caenorhabditis elegans, UniProt Q9XUB2); experiment: MEX-5/TCR-2 RNA interaction inhibitors, dose response, biochemical, C. elegans, fluorescence polarization (AID 1960)
T6 sequence (Q9XUB2 whole entry): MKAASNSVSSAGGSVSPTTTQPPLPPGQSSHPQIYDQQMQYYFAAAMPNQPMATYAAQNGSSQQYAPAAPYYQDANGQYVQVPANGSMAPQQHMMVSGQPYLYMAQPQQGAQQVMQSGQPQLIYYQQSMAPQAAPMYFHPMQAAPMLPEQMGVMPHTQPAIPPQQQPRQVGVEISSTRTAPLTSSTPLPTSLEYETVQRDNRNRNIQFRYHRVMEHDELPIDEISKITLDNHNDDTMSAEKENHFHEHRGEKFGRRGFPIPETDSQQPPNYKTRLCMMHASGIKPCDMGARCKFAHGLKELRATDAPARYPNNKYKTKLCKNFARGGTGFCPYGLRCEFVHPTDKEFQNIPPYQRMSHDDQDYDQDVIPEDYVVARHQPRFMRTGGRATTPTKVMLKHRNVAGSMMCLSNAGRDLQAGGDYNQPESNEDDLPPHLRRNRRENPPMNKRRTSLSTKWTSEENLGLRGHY

[17] = target: T7, Long-chain-fatty-acid--AMP ligase FadD28 (Mycobacterium tuberculosis, UniProt P9WQ59); experiment: Fluorescence polarization aasay to screen for inhibitors that compete for the binding of FadD28 to a bisubstrate Measured in Biochemical System Using Plate Reader - 2147-01_Inhibitor_Dose_CherryPick_Activity.; assay type: functional, Mycobacterium tuberculosis H37Rv
T7 sequence (P9WQ59 whole entry): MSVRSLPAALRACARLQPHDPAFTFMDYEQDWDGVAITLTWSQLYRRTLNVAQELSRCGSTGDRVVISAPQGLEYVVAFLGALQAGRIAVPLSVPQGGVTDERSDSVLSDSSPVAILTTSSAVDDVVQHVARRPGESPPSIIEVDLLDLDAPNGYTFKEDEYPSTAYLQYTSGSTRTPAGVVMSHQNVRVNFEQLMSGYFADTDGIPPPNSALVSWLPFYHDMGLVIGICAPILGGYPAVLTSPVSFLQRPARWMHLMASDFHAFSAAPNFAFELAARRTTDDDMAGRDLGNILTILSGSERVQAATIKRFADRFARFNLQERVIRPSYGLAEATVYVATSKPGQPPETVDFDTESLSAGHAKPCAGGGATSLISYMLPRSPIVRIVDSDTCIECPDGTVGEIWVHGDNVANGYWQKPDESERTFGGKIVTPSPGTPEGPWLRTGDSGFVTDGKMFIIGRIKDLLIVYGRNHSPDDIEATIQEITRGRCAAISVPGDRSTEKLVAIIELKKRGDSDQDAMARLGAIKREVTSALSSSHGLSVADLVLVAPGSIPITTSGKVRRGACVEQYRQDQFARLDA

[18] = target: Eukaryotic translation initiation factor 4E (Mus musculus, UniProt P63073); experiment: eIF4E–eIF4G protein interaction inhibitors, dose response, biochemical, TR-FRET (AID 855); assay type: functional;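 further: potency for disrupting eIF4E binding to eIF4GI seen as loss of FRET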
[19] = target: T8, Protein Tat (Human immunodeficiency virus type 1 group M subtype B (isolate HXB2)(HIV-1), UniProt P04608); assay type: functional;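 further: tat binding to TAR RNA read out by fluorescence polarization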
T8 sequence (P04608 whole entry): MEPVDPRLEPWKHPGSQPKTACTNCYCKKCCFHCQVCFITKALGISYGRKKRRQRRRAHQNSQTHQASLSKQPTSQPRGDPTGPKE

[20] = target: Nonstructural protein 1 (Influenza A virus, UniProt Q194T2); assay type: functional, Influenza A virus (A/California/07/2009(H1N1))
Sequence of Nonstructural protein 1 (Q194T2 whole entry): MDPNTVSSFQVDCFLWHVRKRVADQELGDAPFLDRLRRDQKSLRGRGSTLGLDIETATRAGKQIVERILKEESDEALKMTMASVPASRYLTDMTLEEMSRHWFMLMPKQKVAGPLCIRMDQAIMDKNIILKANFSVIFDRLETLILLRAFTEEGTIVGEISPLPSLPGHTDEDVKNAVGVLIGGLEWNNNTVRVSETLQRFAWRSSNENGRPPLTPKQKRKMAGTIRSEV

Sequence of G-protein coupled receptor 55 (Q9Y2T6 whole entry): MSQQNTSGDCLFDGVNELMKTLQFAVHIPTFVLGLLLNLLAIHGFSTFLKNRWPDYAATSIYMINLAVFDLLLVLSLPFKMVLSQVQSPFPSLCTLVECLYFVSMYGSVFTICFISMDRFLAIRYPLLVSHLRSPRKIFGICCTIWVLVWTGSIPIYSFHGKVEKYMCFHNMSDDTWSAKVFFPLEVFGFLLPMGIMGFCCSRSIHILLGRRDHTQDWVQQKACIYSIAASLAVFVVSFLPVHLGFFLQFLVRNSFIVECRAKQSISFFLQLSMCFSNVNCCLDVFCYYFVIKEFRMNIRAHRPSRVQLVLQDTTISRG
Sequence of DNA dC->dU-editing enzyme APOBEC-3A (P31941 whole entry): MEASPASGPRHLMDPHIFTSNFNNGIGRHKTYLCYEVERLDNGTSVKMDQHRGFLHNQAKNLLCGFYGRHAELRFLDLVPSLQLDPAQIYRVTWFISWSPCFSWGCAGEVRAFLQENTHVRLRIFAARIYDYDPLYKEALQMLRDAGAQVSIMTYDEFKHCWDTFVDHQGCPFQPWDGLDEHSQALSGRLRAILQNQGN
Sequence of DNA dC->dU-editing enzyme APOBEC-3G (Q9HC16 whole entry): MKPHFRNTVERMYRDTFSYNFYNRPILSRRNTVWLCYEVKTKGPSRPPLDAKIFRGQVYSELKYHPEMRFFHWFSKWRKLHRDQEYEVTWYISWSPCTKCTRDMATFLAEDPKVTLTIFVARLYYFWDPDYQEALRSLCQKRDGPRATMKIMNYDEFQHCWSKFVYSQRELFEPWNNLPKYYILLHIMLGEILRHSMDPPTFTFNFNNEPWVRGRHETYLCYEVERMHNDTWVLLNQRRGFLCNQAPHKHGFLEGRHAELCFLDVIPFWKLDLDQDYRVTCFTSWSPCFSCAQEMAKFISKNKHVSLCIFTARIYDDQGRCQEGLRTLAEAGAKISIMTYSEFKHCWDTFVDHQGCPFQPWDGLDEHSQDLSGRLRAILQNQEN
Sequence of Eukaryotic translation initiation factor 4E (P63073 whole entry): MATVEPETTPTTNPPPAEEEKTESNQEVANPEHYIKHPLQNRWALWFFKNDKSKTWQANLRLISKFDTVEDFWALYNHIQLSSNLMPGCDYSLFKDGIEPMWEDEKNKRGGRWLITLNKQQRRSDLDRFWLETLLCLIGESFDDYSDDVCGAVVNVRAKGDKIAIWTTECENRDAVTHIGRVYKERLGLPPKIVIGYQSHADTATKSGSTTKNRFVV
Sequence of Ras and Rab interactor 1/Tyrosine-protein kinase ABL1 (P00519 whole entry, the tested form may be a part): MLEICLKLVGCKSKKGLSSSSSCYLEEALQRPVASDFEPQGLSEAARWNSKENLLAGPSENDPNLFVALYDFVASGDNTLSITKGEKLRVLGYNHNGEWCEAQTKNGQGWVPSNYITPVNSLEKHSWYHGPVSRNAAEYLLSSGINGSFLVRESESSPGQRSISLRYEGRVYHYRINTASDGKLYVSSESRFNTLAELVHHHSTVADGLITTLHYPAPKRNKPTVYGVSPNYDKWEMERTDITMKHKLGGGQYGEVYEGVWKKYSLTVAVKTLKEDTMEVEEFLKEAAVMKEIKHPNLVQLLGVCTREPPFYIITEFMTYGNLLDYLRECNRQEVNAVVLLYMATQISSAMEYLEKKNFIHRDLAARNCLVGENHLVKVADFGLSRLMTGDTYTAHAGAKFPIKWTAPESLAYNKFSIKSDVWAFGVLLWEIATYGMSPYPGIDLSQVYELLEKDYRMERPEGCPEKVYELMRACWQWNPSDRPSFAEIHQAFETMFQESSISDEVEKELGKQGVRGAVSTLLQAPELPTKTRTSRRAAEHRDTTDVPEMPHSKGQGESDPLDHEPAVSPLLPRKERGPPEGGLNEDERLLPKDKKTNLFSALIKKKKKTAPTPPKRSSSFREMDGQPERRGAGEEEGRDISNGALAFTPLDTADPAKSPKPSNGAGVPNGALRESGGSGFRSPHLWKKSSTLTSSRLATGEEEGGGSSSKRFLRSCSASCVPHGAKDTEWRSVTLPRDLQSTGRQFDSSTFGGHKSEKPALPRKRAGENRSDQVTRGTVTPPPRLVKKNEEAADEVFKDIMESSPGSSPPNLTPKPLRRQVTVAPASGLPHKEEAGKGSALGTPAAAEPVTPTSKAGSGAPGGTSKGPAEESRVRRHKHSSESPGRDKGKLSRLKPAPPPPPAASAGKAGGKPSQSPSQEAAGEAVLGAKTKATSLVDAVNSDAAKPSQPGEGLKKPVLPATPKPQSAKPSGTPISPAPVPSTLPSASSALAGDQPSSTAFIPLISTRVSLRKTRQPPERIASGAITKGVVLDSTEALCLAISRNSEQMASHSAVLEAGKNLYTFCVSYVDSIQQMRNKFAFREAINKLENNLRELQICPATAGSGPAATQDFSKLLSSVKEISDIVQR
Sequence of Ras and Rab interactor 1/Tyrosine-protein kinase ABL1 (Q13671 whole entry, the tested form may be a part): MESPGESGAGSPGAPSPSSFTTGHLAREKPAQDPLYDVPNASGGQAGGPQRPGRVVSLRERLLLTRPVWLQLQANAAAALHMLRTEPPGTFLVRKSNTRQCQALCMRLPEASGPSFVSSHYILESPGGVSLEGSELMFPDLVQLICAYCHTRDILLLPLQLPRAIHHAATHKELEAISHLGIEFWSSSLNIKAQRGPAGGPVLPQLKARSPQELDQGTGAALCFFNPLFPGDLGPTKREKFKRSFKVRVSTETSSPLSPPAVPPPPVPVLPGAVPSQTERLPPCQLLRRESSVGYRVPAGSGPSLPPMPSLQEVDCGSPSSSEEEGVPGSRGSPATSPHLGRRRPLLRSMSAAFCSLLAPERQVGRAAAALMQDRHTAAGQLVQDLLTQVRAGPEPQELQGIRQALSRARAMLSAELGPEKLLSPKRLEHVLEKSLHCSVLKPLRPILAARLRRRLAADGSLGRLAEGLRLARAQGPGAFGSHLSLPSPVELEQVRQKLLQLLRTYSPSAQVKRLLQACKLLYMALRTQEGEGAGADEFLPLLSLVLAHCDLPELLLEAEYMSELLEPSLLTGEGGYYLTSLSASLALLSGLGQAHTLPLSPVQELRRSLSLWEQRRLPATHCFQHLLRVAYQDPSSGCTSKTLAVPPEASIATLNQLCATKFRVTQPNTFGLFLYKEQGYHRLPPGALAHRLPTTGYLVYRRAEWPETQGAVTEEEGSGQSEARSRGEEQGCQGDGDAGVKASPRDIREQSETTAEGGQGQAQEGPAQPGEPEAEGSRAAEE

## N#Cc1cnn(Cc2ccc(Cl)cc2)c1N
[1]
  IC50: > 50 µM (inactive)

## O=C(Nc1nnc(-c2ccncc2)o1)c1ccc(Br)s1
[2]
  CC50: 16.8 µM (active)
[3]
  IC50: 18.3 µM (active)
[4]
  EC50: 3.57 µM (active)
[5]
  CC50: 23.7 µM (active)
[6]
  EC50: 11.8 µM (active)
[7]
  EC50: > 150 µM (not active)
[8]
  CC50: 19.3 µM (active)

## CCn1c(S)nnc1CSCc1ccccc1
[9]
  IC50: > 100 µM (inactive)
[10]
  IC50: 8.31 µM (active)

## Cc1ccc(-n2c(C)cc(C3=NN=C(NC4CC4)SC3)c2C)cc1C
[2]
  CC50: > 20 µM (active)
[3]
  IC50: 39 µM (active)
[5]
  CC50: 20 µM (active)
[8]
  CC50: > 20 µM (active)

## Cc1cc(-c2nnc(S)n2/N=C/c2ccc(C)o2)n[nH]1
[9]
  IC50: > 100 µM (inactive)
[10]
  IC50: 5.66 µM (active)

## CCOC(=O)c1c(N)sc(C(O)(C(F)(F)F)C(F)(F)F)c1-c1ccccc1
[11]
  EC50: 7.5 µM (active)
[12]
  IC50: 3.66 µM (active)

## CC(=O)NC(CC(=O)OCC(=O)c1c(N)n(C)c(=O)n(C)c1=O)c1ccccc1 (centres undefined)
[1]
  IC50: > 50 µM (inactive)

## Cc1c2cc(O)c(=O)cc-2oc2cc(O)c(O)cc12
[13]
  IC50: 3.55 µM (active)
[14]
  IC50: 0.835 µM (active)
[15]
  EC50: 1.9 µM (inconclusive)
[16]
  EC50: 0.082 µM (active)
[17]
  AC50: 4.65 µM (active)
[18]
  IC50: 43.3 µM (inactive)
[19]
  IC50: 31.3 µM (inconclusive) and > 52.2 µM (active)
[20]
  IC50: 30.5 µM (active)

## CC(C)CC(=O)NC(Oc1ccc(Cl)cc1)C(Cl)(Cl)Cl (centres undefined)
[12]
  IC50: 1.17 µM (active)

## Cc1nc(SCc2ccccc2)c2ccsc2n1
[1]
  IC50: > 50 µM (inactive)
